Assay results from patent publication US8507509B2, “Saturated and insaturated bi- or tricyclic aryloxyacetamine derivatives and their use as fungicides” (Syngenta Crop Protection LLC, priority 2007, dated 2013).

Experiments:
Plasmopara viticola = Plasmopara viticola (downy mildew of grapevine), grapevine leaf disk assay, preventive; type: in vivo; conditions: foliar, 168 h, 200 ppm, grapevine leaf disks, assessed seven days after inoculation, read-out: control of fungal infection, Plasmopara viticola
[1] = system: Erysiphe graminis f.sp. tritici; test: Erysiphe graminis f.sp. tritici (wheat powdery mildew), wheat leaf segment assay, preventive; type: in vivo; conditions: Blumeria graminis, foliar, 96 h; 200 ppm; wheat leaf segments; assessed four days after inoculation; read-out: control of fungal infection, Etysiphe graminis f.sp. tritici
Pythium ultimum = Pythium ultimum (Damping off), liquid culture growth inhibition in potato dextrose broth; type: cell-based; conditions: Globisporangium ultimum; 20 ppm; potato dextrose broth, 24° C.; inhibition of growth determined photometrically after 48 hours; read-out: control of fungal infection, Pythium ultimum
Phytophthora infestans = test: whole plant or invertebrate; type: in vivo; conditions: in Solanum lycopersicum, foliar, 96 h, read-out: control of fungal infection, Phytophthora infestans
Botrytis cinerea = Botrytis cinerea (grey mould), bean leaf disk assay, preventive; type: in vivo; conditions: foliar, 96 h, 200 ppm, bean leaf disks, assessed four days after inoculation, read-out: control of fungal infection, Botrytis cinerea
Septoria tritici = Septoria tritici (leaf blotch), liquid culture growth inhibition in nutrient broth; type: cell-based; conditions: Zymoseptoria tritici; 200 ppm; PDB broth, 24 C; inhibition of growth determined photometrically after 72 hrs; read-out: control of fungal infection, Septoria tritici
Septoria nodorum = Septoria nodorum (wheat glume blotch), wheat leaf segment assay, preventive; type: in vivo; conditions: Parastagonospora nodorum, foliar, 96 h; 200 ppm; wheat leaf segments; assessed four days after inoculation; read-out: control of fungal infection, Septoria nodorum

C=CCON=CC(C)(C)NC(=O)C(Oc1ccc2ncc(Br)cc2c1)SC (stereo not drawn) [Compound No. 13, N-(2-Allyloxyimino-1,1-dimethyl-ethyl)-2-(3-bromo-quinolin-6-yloxy)-2-methylsulfanyl-acetamide]
≥ 60%: pest or weed control at 200 ppm (Plasmopara viticola) | pest or weed control at 200 ppm [1] | inhibition of growth at 20 ppm (Pythium ultimum) | pest or weed control at 200 ppm (Phytophthora infestans) | pest or weed control at 200 ppm (Botrytis cinerea) | inhibition of growth at 200 ppm (Septoria tritici)

CCON=CC(C)(C)NC(=O)C(Oc1cc(Br)c2ncc(Br)cc2c1)SC (stereo not drawn) [Compound No. 33, 2-(3,8-Dibromo-quinolin-6-yloxy)-N-(2-ethoxyimino-1,1-dimethyl-ethyl)-2-methylsulfanyl-acetamide]
≥ 60%: pest or weed control at 200 ppm (Plasmopara viticola) | pest or weed control at 200 ppm (Botrytis cinerea) | inhibition of growth at 200 ppm (Septoria tritici)

C=CCON=CCC(C)(C)NC(=O)C(Oc1cc(C)c2ncc(I)cc2c1)SC (stereo not drawn) [Compound No. 40, N-(3-Allyloxyimino-1,1-dimethyl-propyl)-2-(3-iodo-8-methyl-quinolin-6-yloxy)-2-methylsulfanyl-acetamide]
≥ 60%: pest or weed control at 200 ppm (Plasmopara viticola) | pest or weed control at 200 ppm (Botrytis cinerea) | inhibition of growth at 200 ppm (Septoria tritici)

CCC(Oc1ccc2ncc(I)cc2c1)C(=O)NC(C)(C=NOC)COC (stereo not drawn) [Compound No. 68, 2-(3-Iodo-quinolin-6-yloxy)-N-(2-methoxyimino-1-methoxymethyl-1-methyl-ethyl]-butyramide]
≥ 60%: pest or weed control at 200 ppm (Plasmopara viticola) | pest or weed control at 200 ppm [1] | pest or weed control at 200 ppm (Septoria nodorum) | pest or weed control at 200 ppm (Phytophthora infestans) | pest or weed control at 200 ppm (Botrytis cinerea) | inhibition of growth at 200 ppm (Septoria tritici)

CON=CC(C)(C)NC(=O)C(OC)Oc1ccc2ncc(C#C[Si](C)(C)C)cc2c1 (stereo not drawn) [Compound No. 74, 2-Methoxy-N-(2-methoxyimino-1,1-dimethyl-ethyl)-2-(3-trimethylsilanylethynyl-quinolin-6-yloxy)-acetamide]
≥ 60%: pest or weed control at 200 ppm (Plasmopara viticola) | pest or weed control at 200 ppm [1] | inhibition of growth at 20 ppm (Pythium ultimum) | pest or weed control at 200 ppm (Phytophthora infestans) | pest or weed control at 200 ppm (Botrytis cinerea) | inhibition of growth at 200 ppm (Septoria tritici)

CON=CC(C)(C)NC(=O)C(OC)Oc1cc(C)c2ncc(C#C[Si](C)(C)C)cc2c1 (stereo not drawn) [Compound No. 75, 2-Methoxy-N-(2-methoxyimino-1,1-dimethyl-ethyl)-2-(8-methyl-3-trimethylsilanylethynyl-quinolin-6-yloxy)-acetamide]
≥ 60%: pest or weed control at 200 ppm (Plasmopara viticola) | pest or weed control at 200 ppm [1] | pest or weed control at 200 ppm (Septoria nodorum) | pest or weed control at 200 ppm (Phytophthora infestans) | pest or weed control at 200 ppm (Botrytis cinerea)

CON=CC(C)(C)NC(=O)C(Oc1cc(Cl)c2sccc2c1)SC (stereo not drawn) [Compound No. 83, 2-(7-Chloro-benzo[b]thiophen-5-yloxy)-N-(2-methoxyimino-1,1-dimethyl-ethyl)-2-methylsulfanyl-acetamide]
≥ 60%: pest or weed control at 200 ppm (Plasmopara viticola) | pest or weed control at 200 ppm (Botrytis cinerea) | inhibition of growth at 200 ppm (Septoria tritici)

CON=CC(C)(C)NC(=O)C(Oc1cc(C)c2sccc2c1)SC (stereo not drawn) [Compound No. 84, N-(2-methoxyimino-1,1-dimethyl-ethyl)-2-(7-methyl-benzo[b]thiophen-5-yloxy)-2-methylsulfanyl-acetamide]
≥ 60%: pest or weed control at 200 ppm (Plasmopara viticola) | pest or weed control at 200 ppm (Botrytis cinerea) | inhibition of growth at 200 ppm (Septoria tritici)

CON=CC(C)(C)NC(=O)C(Oc1cc(C)c2ccc(Br)cc2c1)SC (stereo not drawn) [Compound No. 85, 2-(7-bromo-4-methyl-naphthalen-2-yloxy)-N-(2-methoxyimino-1,1-dimethyl-ethyl)-2-methylsulfanyl-acetamide]
≥ 60%: pest or weed control at 200 ppm [1] | pest or weed control at 200 ppm (Botrytis cinerea) | inhibition of growth at 200 ppm (Septoria tritici)

CON=CC(C)(C)NC(=O)C(Oc1cc(C)c2scnc2c1)SC (stereo not drawn) [Compound No. 87, N-(2-methoxyimino-1,1-dimethyl-ethyl)-2-(7-methyl-benzothiazol-5-yloxy)-2-methylsulfanyl-acetamide]
≥ 60%: inhibition of growth at 20 ppm (Pythium ultimum) | pest or weed control at 200 ppm (Botrytis cinerea)

CON=CC(C)(C)NC(=O)C(Oc1cc(C)c2ncsc2c1)SC (stereo not drawn) [Compound No. 89, N-(2-Methoxyimino-1,1-dimethyl-ethyl)-2-(4-methyl-benzothiazol-6-yloxy)-2-methylsulfanyl-acetamide]
≥ 60%: pest or weed control at 200 ppm (Plasmopara viticola) | pest or weed control at 200 ppm [1] | pest or weed control at 200 ppm (Phytophthora infestans) | pest or weed control at 200 ppm (Botrytis cinerea) | inhibition of growth at 200 ppm (Septoria tritici)

CSC(Oc1cc(C)c2ncc(I)cc2c1)C(=O)NC(C)(C)CC=NOC1CCCCO1 (stereo not drawn) [Compound No. 96, N-[1,1-Dimethyl-3-(tetrahydro-pyran-2-yloxyimino)-propyl]-2-(3-iodo-8-methyl-quinolin-6-yloxy)-2-methylsulfanyl-acetamide]
≥ 60%: pest or weed control at 200 ppm (Plasmopara viticola) | inhibition of growth at 20 ppm (Pythium ultimum) | pest or weed control at 200 ppm (Botrytis cinerea) | inhibition of growth at 200 ppm (Septoria tritici)

CON=CC(C)(C)NC(=O)C(Oc1cc(Cl)c2ncc(I)cc2c1)SC (stereo not drawn) [Compound No. 106, 2-(8-Chloro-3-iodo-quinolin-6-yloxy)-N-(2-methoxyimino-1,1-dimethyl-ethyl)-2-methylsulfanyl-acetamide]
≥ 60%: pest or weed control at 200 ppm (Plasmopara viticola) | pest or weed control at 200 ppm (Botrytis cinerea) | inhibition of growth at 200 ppm (Septoria tritici)

CON=C(Cc1ccccc1)C(C)(C)NC(=O)C(Oc1ccc2ncc(Br)cc2c1)SC (stereo not drawn) [Compound No. 121, 2-(3-Bromo-quinolin-6-yloxy)-N-{2-[(E or Z)-methoxyimino]-1,1-dimethyl-3-phenyl-propyl}-2-methylsulfanyl-acetamide]
≥ 60%: pest or weed control at 200 ppm (Plasmopara viticola) | pest or weed control at 200 ppm (Botrytis cinerea) | inhibition of growth at 200 ppm (Septoria tritici)

CCON=C(Cc1ccccc1)C(C)(C)NC(=O)C(Oc1ccc2ncc(Br)cc2c1)SC (stereo not drawn) [Compound No. 122, 2-(3-Bromo-quinolin-6-yloxy)-N-{2-[(E or Z)-ethoxyimino]-1,1-dimethyl-3-phenyl-propyl}-2-methylsulfanyl-acetamide]
≥ 60%: pest or weed control at 200 ppm (Plasmopara viticola) | pest or weed control at 200 ppm (Botrytis cinerea) | inhibition of growth at 200 ppm (Septoria tritici)

C=CCON=C(Cc1ccccn1)C(C)(C)NC(=O)C(Oc1ccc2ncc(Br)cc2c1)SC (stereo not drawn) [Compound No. 129, N-{2-[(E or Z)-Allyloxyimino]-1,1-dimethyl-3-pyridin-2-yl-propyl}-2-(3-bromo-quinolin-6-yloxy)-2-methylsulfanyl-acetamide]
≥ 60%: pest or weed control at 200 ppm (Botrytis cinerea) | inhibition of growth at 200 ppm (Septoria tritici)
